Source: patent publication US20190134003A1, “COMBINATION THERAPIES USING INDAZOLYLBENZAMIDE DERIVATIVES FOR THE TREATMENT OF CANCER” (ESANEX, INC., priority 2016, published 2019)

Key:
[1] = Dose escalation, MTD/DLT and adverse events of SNX-5422 with carboplatin and paclitaxel in patients; assay type: in vivo, human; conditions: SNX-5422 qod in combination with carboplatin (AUC 5) and paclitaxel (175 mg/m^2)
From the text: The performed dosing schedule is disclosed in FIG. 1. SNX-5422 dose was escalated as follows.

[2] = every other day (qod), previously-established; cited from earlier work

CC1(C)CC(=O)c2c(C(F)(F)F)nn(-c3ccc(C(N)=O)c(N[C@H]4CC[C@H](OC(=O)CN)CC4)c3)c2C1 [SNX-5422, trans-4-{(2-(aminocarbonyl)-5-[6,6-dimethyl-4-oxo-3-(trifluoromethyl)-4,5,6,7-tetrahydro-1H-indazol-1-yl]phenyl}amino)cyclohexyl glycinate]
Maximum Tolerated Dose [1]: 100 mg/m^2 | single agent MTD [2]: 100 mg/m^2
